69 compounds from PubChem BioAssay AID1259333 (Broad Institute, 2017) can be followed below.

Structures are written as SMILES. The source made the active and inactive calls. How the calls were made is not given here; tested in parental BL2 cells. Numbered stars: 1 amine (or outer) side, 2 acyl side, 3 side chain; on linkers, the order of the positions; unused ones are H or OH. Bridge positions count the residues as written; N and C are the ends. Square brackets hold non-standard residues; d marks the D form. Peptide text beside a SMILES is read from it. I, II: the chains in the order shown. Actinocin(9to1) = Cc1c2oc3c(C)ccc(C(=O)[*:1])c3nc-2c(C(=O)[*:2])c(N)c1=O; NMeV = CN[CH](C(=O)O)C(C)C; Sar = CNCC(=O)O

In this test the test system is cytotoxicity, CellTiter-Glo ATP luminescence. In words: loss of cell viability by ATP content – CellTiter-Glo, cytotoxicity control, dose response (AID 1259333). (In general: Cellular ATP, detected with luciferase, serves as a proxy for viable cell number.)
A word on the AC50: it is the concentration giving half of the maximal activity seen. With `C[C@@H]1CN([C@@H](C)CO)C(=O)c2ccccc2-c2ccccc2CO[C@H]1CN(C)Cc1ccccc1C(F)(F)F`, the AC50 was 7.28 µM.
In the case of `Cc1cc(C)nc(Sc2ncnc(N)c2[N+](=O)[O-])n1` it was > 20 µM (inactive).
Turning to `COc1ccc(CN(CCC(c2ccccc2)c2ccc(OC(C)C)cc2)C(=O)CCl)cc1OC` (centres undefined), the AC50 is 2.54 µM.
`O=C1Cc2c([nH]c3ccc(Br)cc23)-c2ccccc2N1`: the AC50 was 10.2 µM.
In the case of `C[C@@H]1CN([C@H](C)CO)C(=O)c2ccccc2-c2ccccc2CO[C@@H]1CN(C)Cc1ccccc1C(F)(F)F`, the AC50 was 6.93 µM.
In the case of `CC(=O)OC1C(=O)OCC23CCC4(C)OC4C2OC2CC(OC(=O)C=CC=CC(=O)OCCC1C)C3(C)C21CO1` (centres undefined) it was > 7 µM (inactive); in that of `Cc1cnc(NC(=O)c2ccccn2)s1`, 7.7 µM.
The value for `COc1cc2cc(C(=O)N3CC(COS(C)(=O)=O)c4ccc(O)cc43)[nH]c2c(OC)c1OC` (centres undefined) was 0.276 µM; that for `COC(=O)C1=C(C(=O)OC)C(C(=O)OC)C(C(=O)OC)C(C(=O)OC)(C(=O)OC)C(C(=O)OC)=C1C(=O)OC` (centres undefined) was 7.79 µM.
The value for `COc1ccc(S(=O)(=O)Nc2ccc3c(c2)C(=O)N([C@H](C)CO)C[C@H](C)[C@@H](CN(C)Cc2ccc(C(F)(F)F)cc2)OCCCC[C@@H](C)O3)cc1` was 10.5 µM.
Turning to `N#C[C@H]1[C@H](c2ccc(C#Cc3ccccc3F)cc2)[C@@H](CO)N1C(=O)C1CC1`, the AC50 is > 20 µM (inactive).
Take `c1ccc(-c2nc(-c3ccccn3)no2)cc1`: the AC50 was 11.5 µM.
Turning to `Clc1ccc(CSC(Cn2ccnc2)c2ccc(Cl)cc2Cl)cc1` (centres undefined), the AC50 was > 20 µM (inactive).
The value for `Cc1c2oc3c(C)ccc(C(=O)OC(C)C4NC(=O)C(C(C)C)N(C)C(=O)CN(C)C(=O)C5CCCN5C(=O)C(C(C)C)NC4=O)c3nc-2c(C(=O)OC(C)C2NC(=O)C(C(C)C)N(C)C(=O)CN(C)C(=O)C3CCCN3C(=O)C(C(C)C)NC2=O)c(N)c1=O` (centres undefined) (I: cyclo([Sar][NMeV]TVP) / II: cyclo([Sar][NMeV]TVP); linker I:3-II:3 via Actinocin(9to1); configuration not given here) was > 20 µM (inactive); that for `C[C@@H]1CN([C@@H](C)CO)C(=O)c2c(c3ccccc3n2C)-c2ccccc2CO[C@H]1CN(C)C(=O)Nc1cccc(C(F)(F)F)c1` was 1.4 µM.
Take `C[C@H](CO)N1C[C@H](C)[C@H](CN(C)S(=O)(=O)c2ccc([N+](=O)[O-])cc2)OCc2ccccc2-c2c(n(C)c3ccccc23)C1=O`: the AC50 is > 20 µM (inactive).
For `COc1cccc(-c2cc(=O)c3cc(OC)ccc3o2)c1`, the AC50 was 10.3 µM.
As for `C[C@@H]1CC=CC[C@H](c2ccc(F)cc2)NC(=O)[C@@H](Cc2ccccc2)N(C)C(=O)c2ccccc2O1` (mixture of isomers), the AC50 was > 20 µM (inactive).
The value for `Cc1noc(C)c1S(=O)(=O)N(C)C[C@H]1OCc2ccccc2-c2c(n(C)c3ccccc23)C(=O)N([C@@H](C)CO)C[C@H]1C` was 10.1 µM; that for `CC(C)C#Cc1ccc([C@H]2[C@@H](CO)N(C(=O)c3ccccn3)[C@H]2C#N)cc1` was > 20 µM (inactive).
As to `CN(C)c1ccc(C(=C2C=CC(=[N+](C)C)C=C2)c2ccc(N(C)C)cc2)cc1`, the AC50 is 0.492 µM.
In the case of `CC1=CC2OC3CC4OC(=O)C=CC=CC(=O)OCCC(C)C(O)C(=O)OCC2(CC1O)C4(C)C31CO1` (centres undefined) it was 7.23 µM; in that of `COc1ccc(/C=C/C(=O)Nc2ccccc2C(=O)O)cc1OC`, > 20 µM (inactive); in that of `Cc1noc(C)c1S(=O)(=O)Nc1ccc2c(c1)CC(=O)N([C@@H](C)CO)C[C@@H](C)[C@@H](CN(C)Cc1ccc(Oc3ccccc3)cc1)O2`, > 20 µM (inactive).
In the case of `O=C1NC2c3c(Cl)sc(Cl)c3C(=O)C2O1` (centres undefined) it was 3.72 µM; in that of `C[C@@H]1CCCCO[C@@H](CN(C)S(=O)(=O)c2ccc(Cl)cc2)[C@H](C)CN([C@H](C)CO)C(=O)c2cc(NC(=O)Nc3ccc(C(F)(F)F)cc3)ccc2O1`, 6.61 µM; in that of `COc1ccc(-c2cc(-c3ccccc3)c(C#N)c(S(C)=O)n2)cc1` (centres undefined), 3 µM.
For the compound `O=C(Nc1ccc(C(F)(F)F)cc1)N1C[C@@H]2N[C@H](C1)C2c1ccc(-c2ccccc2)cc1` (some centres undefined), the AC50 was 8.09 µM.
`OC(CCN1CCCCC1)c1ccc(-c2ccccc2)cc1` (centres undefined): the AC50 is > 20 µM (inactive).
As for `C[C@H]1CN([C@@H](C)CO)C(=O)c2c(c3ccccc3n2C)-c2ccccc2CO[C@H]1CN(C)C(=O)Nc1cccc(C(F)(F)F)c1`, the AC50 is 0.878 µM.
In the case of `C[C@H]1CN([C@@H](C)CO)C(=O)c2c(c3ccccc3n2C)-c2ccccc2CO[C@@H]1CN(C)C(=O)Nc1ccccc1C(F)(F)F`, the AC50 is > 20 µM (inactive).
Regarding `CC(C)c1c(O)ccc2c1CCC1C(C)(C)CCC[C@]21C` (some centres undefined), the AC50 was 6.74 µM.
For `CC1=CC(C)(C)N=C(Nc2nc(C)c3cc(C)cc(C)c3n2)N1`, the AC50 is 1.46 µM.
In the case of `C[C@@H]1CN([C@@H](C)CO)C(=O)c2ccccc2-c2ccccc2CO[C@@H]1CN(C)Cc1ccc(Oc2ccccc2)cc1` it was 8.71 µM; in that of `C[C@@H]1CN([C@@H](C)CO)C(=O)c2c(c3ccccc3n2C)-c2ccccc2CO[C@@H]1CN(C)Cc1cccc(C(F)(F)F)c1`, > 20 µM (inactive).
Regarding `COc1ccc(S(=O)(=O)Nc2ccc3c(c2)C(=O)N([C@@H](C)CO)C[C@@H](C)[C@@H](CN(C)Cc2ccc(C(F)(F)F)cc2)OCCCC[C@H](C)O3)cc1`, the AC50 was > 20 µM (inactive).
On to `C[C@@H]1CCCCO[C@H](CN(C)CC2CCCCC2)[C@H](C)CN([C@@H](C)CO)C(=O)c2cc(NC(=O)Nc3ccc(C(F)(F)F)cc3)ccc2O1`, for which the AC50 is 4.91 µM.
For the compound `Cn1cc(C2=C(c3cn(CCCSC(=N)N)c4ccccc34)C(=O)NC2=O)c2ccccc21`, the AC50 was 0.388 µM.
As to `Cn1cnc(CCNC(=O)C[C@@H]2CC[C@@H]3[C@H](COC[C@@H](O)CN3C(=O)Nc3ccc(C(F)(F)F)cc3)O2)c1`, the AC50 was > 20 µM (inactive).
In the case of `Fc1ccccc1CNCCC(Cc1ccccc1)c1ccc2c(c1)OCO2` (centres undefined) it was > 20 µM (inactive).
Consider `O=C1c2c(O)ccc(O)c2C(=O)c2c(NCCNCCO)ccc(NCCNCCO)c21`, for which the AC50 is 5.78 µM.
As for `COc1ccc(/C=N/Nc2ncccc2[N+](=O)[O-])c(OC)c1`, the AC50 was 5.79 µM.
In the case of `COc1ccc2c3c(n(C)c2c1)[C@H](CO)N(C(=O)Nc1ccc(F)cc1)CC31CCN(C(=O)c2ccc3c(c2)OCO3)CC1` it was > 20 µM (inactive).
`Clc1ccc(C(Cn2ccnc2)OCc2ccsc2Cl)c(Cl)c1` (centres undefined): the AC50 was > 20 µM (inactive).
With `Cc1c(C(=O)c2cccc3ccccc23)c2cccc3c2n1[C@H](CN1CCOCC1)CO3`, the AC50 is 3.44 µM.
The value for `N#C[C@@H]1[C@H](c2ccc(C#CC3CCCCC3)cc2)[C@@H](CO)N1C(=O)Nc1ccc(F)cc1` was > 20 µM (inactive); that for `COc1cc(C(C)C)c2c(c1)S(=O)(=O)N(COc1cc(=O)n3cccc(OCCN4CCCCC4)c3n1)C2=O` was 10.5 µM; that for `COc1ccc(NC(=O)O/N=C/c2c(C)nn(C(C)(C)C)c2C)cc1` was 7.85 µM.
In the case of `O=C(Nc1ccccc1)N1CC(=O)N2[C@H](CO)[C@@H](c3ccc(C#CC4CCCCC4)cc3)[C@H]2C1` it was > 20 µM (inactive).
The value for `COC(=O)C[C@](O)(CCCC(C)(C)O)C(=O)O[C@@H]1C(OC)=C[C@]23CCCN2CCc2cc4c(cc2[C@H]13)OCO4` was > 20 µM (inactive); that for `COC(=O)c1ccccc1-c1c2ccc(=N)cc-2oc2cc(N)ccc12` was > 20 µM (inactive).
Take `Clc1ccc(COC(Cn2ccnc2)c2ccc(Cl)cc2Cl)c(Cl)c1` (centres undefined): the AC50 is 8.13 µM.
For `N#C[C@H]1[C@@H](c2ccc(C#CC3CCCCC3)cc2)[C@@H](CO)N1C(=O)Nc1ccc(F)cc1`, the AC50 is > 20 µM (inactive).
The value for `C[C@H]1CN([C@@H](C)CO)C(=O)c2c(c3ccccc3n2C)-c2ccccc2CO[C@@H]1CN(C)Cc1cccc(C(F)(F)F)c1` was 4.21 µM; that for `CC[C@@]1(O)C(=O)OCc2c1cc1n(c2=O)Cc2cc3ccccc3nc2-1` was 9.41 µM.
With `CC(=O)NCCCC(=O)NC(CCC(=O)OCc1ccccc1)C(=O)OCc1ccccc1` (centres undefined), the AC50 was 9.31 µM.
As for `O=C(C1CCC1)N1CCc2cc(S(=O)(=O)N3CCCCC3)ccc21`, the AC50 is 2.65 µM.
In the case of `Cc1noc(C)c1S(=O)(=O)Nc1ccc2c(c1)C(=O)N([C@@H](C)CO)C[C@H](C)[C@@H](CN(C)C(=O)Nc1cccc3ccccc13)OCCCC[C@H](C)O2` it was > 20 µM (inactive); in that of `C[C@H](CO)N1C[C@H](C)[C@H](CN(C)CC2CCCCC2)OCCCC[C@H](C)Oc2ccc(NC(=O)Nc3ccc(C(F)(F)F)cc3)cc2C1=O`, > 20 µM (inactive); in that of `CC(C)CCCCCCCCCCCCC(=O)NCC(=O)NC1C(O)C(O)C(Nc2ncnc3nc[nH]c23)OC1C(O)CO` (centres undefined), 9.02 µM.
Consider `c1ccc2nc(-c3nc4ccccc4o3)ccc2c1`, for which the AC50 was > 20 µM (inactive).
For `C[C@@H]1CN([C@@H](C)CO)C(=O)c2ccccc2-c2ccccc2CO[C@@H]1CN(C)Cc1ccccc1C(F)(F)F`, the AC50 is > 20 µM (inactive).
Regarding `CC(=O)O[C@H]1C[C@H](O[C@H]2[C@@H](O)C[C@H](O[C@H]3[C@@H](O)C[C@H](O[C@H]4CC[C@@]5(C)C(CCC6C5C[C@@H](O)[C@]5(C)[C@@H](C7=CC(=O)OC7)CC[C@]65O)C4)O[C@@H]3C)O[C@@H]2C)O[C@H](C)[C@H]1O[C@@H]1O[C@H](CO)[C@@H](O)[C@H](O)[C@H]1O` (some centres undefined), the half-maximal activity concentration (AC50) is 0.758 µM.
In the case of `C[C@@H]1O[C@@H](O[C@H]2C[C@@H](O)[C@]3(CO)C4C(CC[C@]3(O)C2)[C@@]2(O)CC[C@H](C3=CC(=O)OC3)[C@@]2(C)C[C@H]4O)[C@H](O)[C@H](O)[C@H]1O` (some centres undefined) it was 0.379 µM; in that of `CC(C)c1ccc(NC(=O)Nc2nc(C(N)COCc3ccccc3)cs2)cc1` (centres undefined), 4.21 µM.
Consider `CCSc1ccc(-c2cc(NC=O)c3ncc(-c4cccc(C(=O)N(C)C)c4)n3c2)cc1`, for which the AC50 was > 20 µM (inactive).
As for `CC(C(=O)O)c1ccc(N2Cc3ccccc3C2=O)cc1` (centres undefined), the AC50 was 9.56 µM.
The value for `O=C1NC2c3c(I)sc(I)c3C(=O)C2O1` (centres undefined) was 6.34 µM; that for `CC(C)NC(=O)N1CC(=O)N2[C@H](CO)[C@@H](c3ccc(/C=C/c4ccccc4)cc3)[C@H]2C1` was > 20 µM (inactive).
